Measured values taken from patent publication US10239849B2 (Merck Sharp & Dohme Corp., priority 2015, dated 2019).

Columns and labels:
[1] = target: T1, glutathione-S-transferase (GST) tagged LXRbeta LBD (ligand binding domain) (Homo sapiens, UniProt P55055); assay: LanthaScreen TR-FRET Liver X Receptor Coactivator Assay, LXR beta-LBD; format: biochemical; settings: for Emax: efficacy in relation to reference dual agonist T1317, read-out: LXR beta activity at max dose (%) (Emax); for EC50: potency (Inflection Point) of co-activator recruitment, TR-FRET, read-out: LXR beta IP
T1 construct: purchased Invitrogen pv4658.pps
T1 sequence (P55055 222-460 limits assumed): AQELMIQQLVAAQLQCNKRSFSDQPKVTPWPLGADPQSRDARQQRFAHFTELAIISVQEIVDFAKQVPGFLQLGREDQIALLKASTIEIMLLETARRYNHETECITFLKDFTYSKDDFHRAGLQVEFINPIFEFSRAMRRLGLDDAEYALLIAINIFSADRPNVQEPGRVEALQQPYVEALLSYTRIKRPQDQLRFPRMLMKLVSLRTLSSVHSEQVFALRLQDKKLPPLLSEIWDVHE
Experimental: (§1) While running the LanthaScreen™ TR-FRET Liver X Receptor Coactivator Assay, LXR alpha-LBD or LXR beta-LBD was added to ligand test compounds followed by addition of a mixture of a fluorescein-labelled coactivator peptide and terbium-conjugated anti-GST antibody. After an incubation period at room temperature, TR-FRET (time-resolved fluorescence resonance energy transfer) was measured using a filter-based instrument capable of TR-FRET, e.g. PerkinElmer Envision.

[2] = target: T2, glutathione-S-transferase (GST) tagged LXRalpha LBD (ligand binding domain) (Homo sapiens, UniProt Q13133); assay: LanthaScreen TR-FRET Liver X Receptor Coactivator Assay, LXR alpha-LBD; format: biochemical; settings: for Emax: efficacy in relation to reference dual agonist T1317, read-out: LXR alpha activity at max dose (%) (Emax); for EC50: read-out: LXR alpha IP
T2 construct: purchased Invitrogen pv4655
T2 sequence (Q13133 209-447 limits assumed): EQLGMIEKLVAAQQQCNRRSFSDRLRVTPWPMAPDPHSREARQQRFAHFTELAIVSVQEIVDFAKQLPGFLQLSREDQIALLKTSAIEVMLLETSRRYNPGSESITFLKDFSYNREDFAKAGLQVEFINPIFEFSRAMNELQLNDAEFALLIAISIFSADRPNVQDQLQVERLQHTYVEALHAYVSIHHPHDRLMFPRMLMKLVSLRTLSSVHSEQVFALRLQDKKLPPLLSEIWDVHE
Experimental: as §1

[3] = potency (Inflection Point) of co-activator recruitment, TR-FRET

| SMILES | Emax [1] | EC50 [1] | Emax [2] | EC50 [2, 3] | LXR alpha IP (nM) [2, 3] |
| --- | --- | --- | --- | --- | --- |
| CN(C)C(=O)c1ccc(-c2ccc(N3CCN(S(=O)(=O)c4c(Cl)cccc4C(F)(F)F)CC3)c(Cl)c2)cc1Cl [Example 4-9, 3,3′-dichloro-4′-(4-{[2-chloro-6-(trifluoromethyl)phenyl]sulfonyl}piperazin-1-yl)-N,N-dimethylbiphenyl-4-carboxamide] | 96% | 597 nM | 51% | 4.13 µM | – |
| CN(C)C(=O)c1ccc(-c2cnc(N3CCN(C(=O)OCc4cccc(Cl)c4)CC3)c(C#N)c2)cc1Cl [Example 3-10, 3-chlorobenzyl 4-{5-[3-chloro-4-(dimethylcarbamoyl)phenyl]-3-cyanopyridin-2-yl}piperazine-1-carboxylate] | 75% | 68 nM | 79% | 23.5 µM | – |
| CN(C)C(=O)c1ccc(-c2cnc(N3CCN(C(=O)C(O)(CCc4ccccc4)C(F)(F)F)CC3)c(C#N)c2)cc1Cl (centres unmarked) [Example 2-37, 2-chloro-4-(5-cyano-6-{4-[2-hydroxy-4-phenyl-2-(trifluoromethyl)butanoyl]piperazin-1-yl}pyridin-3-yl)-N,N-dimethylbenzamide] | 58% | 735 nM | 55% | 97.6 µM | – |
| CN(C)C(=O)c1ccc(-c2ccc(N3CCN(C(=O)OC(C)(C)C)CC3)cc2)cc1Cl [Example 4-11, tert-butyl 4-[3′-chloro-4′-(dimethylcarbamoyl)biphenyl-4-yl]piperazine-1-carboxylate] | 82% | 238 nM | 55% | 5.47 µM | – |
| CCC(O)(C(=O)N1CCN(c2ncc(-c3ccc(C(=O)N(C)C)c(Cl)c3)cc2C#N)CC1)C(F)(F)F (centres unmarked) [Example 2-20, 2-chloro-4-(5-cyano-6-{4-[2-hydroxy-2-(trifluoromethyl)butanoyl]piperazin-1-yl}pyridin-3-yl)-N,N-dimethylbenzamide] | 102% | 138 nM | 60% | 6.07 µM | – |
| COc1ccccc1COC(=O)N1CCN(c2ncc(-c3ccc(C(=O)N(C)C)c(Cl)c3)cc2C#N)CC1 [Example 3-7, 2-methoxybenzyl 4-{5-[3-chloro-4-(dimethylcarbamoyl)phenyl]-3-cyanopyridin-2-yl}piperazine-1-carboxylate] | 85% | 36 nM | 41% | 8.59 µM | – |
| CN(C)C(=O)c1ccc(-c2cnc(N3CCN(C(=O)[C@@](C)(O)C(F)(F)F)CC3)c(C#N)c2)cc1Cl [Example 2-15, 2-chloro-4-(5-cyano-6-{4-[(2R)-3,3,3-trifluoro-2-hydroxy-2-methylpropanoyl]piperazin-1-yl}pyridin-3-yl)-N,N-dimethylbenzamide] | 101% | 171 nM | 58% | 13.1 µM | – |
| CN(C)C(=O)c1ccc(-c2ccc(N3CCN(C(=O)c4c(F)cccc4Cl)CC3)c(Cl)c2)cc1Cl [Example 4-5, 3,3′-dichloro-4′-{4-[(2-chloro-6-fluorophenyl)carbonyl]piperazin-1-yl}-N,N-dimethylbiphenyl-4-carboxamide] | 88% | 39 nM | 63% | 0.618 µM | – |
| CN(C)C(=O)c1ccc(-c2cnc(N3CCN(C(=O)C4(c5ccccc5)CC4)CC3)c(C#N)c2)cc1Cl [Example 2-17, 2-chloro-4-(5-cyano-6-{4-[(1-phenylcyclopropyl)carbonyl]piperazin-1-yl}pyridin-3-yl)-N,N-dimethylbenzamide] | 95% | 27 nM | 27% | 4.36 µM | – |
| CN(C)C(=O)c1ccc(-c2cnc(N3CCN(C(=O)Cc4ccccc4)CC3)c(C#N)c2)cc1Cl [Example 2-7] | 102% | 50 nM | 54% | 6.79 µM | – |
| CN(C)C(=O)c1ccc(-c2cnc(N3CCN(S(=O)(=O)Cc4ccccc4Cl)CC3)c(C#N)c2)cc1Cl [Example 1-12, 2-chloro-4-(6-{4-[(2-chlorobenzyl)sulfonyl]piperazin-1-yl}-5-cyanopyridin-3-yl)-N,N-dimethylbenzamide] | 97% | 28 nM | 27% | 7.41 µM | – |
| CN(C)C(=O)c1ccc(-c2cnc(N3CCN(C(=O)C45CC(C4)C5)CC3)c(C#N)c2)cc1Cl [Example 2-4, 4-{6-[4-(bicyclo[1.1.1]pent-1-ylcarbonyl)piperazin-1-yl]-5-cyanopyridin-3-yl}-2-chloro-N,N-dimethylbenzamide] | 79% | 95 nM | 44% | 12.8 µM | – |
| CN(C)C(=O)c1ccc(-c2cnc(N3CCN(C(=O)OCc4c(Cl)cccc4Cl)CC3)c(C#N)c2)cc1Cl [Example 3-1, 2,6-dichlorobenzyl4-{5-[3-chloro-4-(dimethylcarbamoyl)phenyl]-3-cyanopyridin-2-yl}piperazine-1-carboxylate] | 119% | 12 nM | 60% | 2.31 µM | – |

Continued, values first:

| Emax [1] | EC50 [1] | Emax [2] | EC50 [2, 3] | LXR alpha IP (nM) [2, 3] | SMILES |
| --- | --- | --- | --- | --- | --- |
| 76% | 88 nM | 54% | 2.68 µM | – | CCN(C)C(=O)c1ccc(-c2cnc(N3CCN(C(=O)OC(C)(C)C)CC3)c(C#N)c2)cc1Cl [Example 5-5, tert-butyl 4-(5-{3-chloro-4-[ethyl(methyl)carbamoyl]phenyl}-3-cyanopyridin-2-yl)piperazine-1-carboxylate] |
| 53% | 252 nM | 37% | 16.8 µM | – | CN(C)C(=O)c1ccc(-c2cnc(N3CC4CC3CN4C(=O)OC(C)(C)C)c(C#N)c2)cc1Cl (centres unmarked) [Example 8-5, tert-butyl 5-{5-[3-chloro-4-(dimethylcarbamoyl)phenyl]-3-cyanopyridin-2-yl}-2,5-diazabicyclo[2.2.1]heptane-2-carboxylate] |
| 81% | 177 nM | 54% | 3.89 µM | – | CN(C)C(=O)c1ccc(-c2ccc(N3CCN(C(=O)OC(C)(C)C)CC3)c(C#N)c2)cc1Cl [Example 8-15, tert-butyl 4-[3′-chloro-3-cyano-4′-(dimethylcarbamoyl)biphenyl-4-yl]piperazine-1-carboxylate] |
| 63% | 1090 nM | 37% | 2.71 µM | – | CC(C)(C)OC(=O)N1CCN(c2ncc(-c3ccc(C(=O)NCCCO)c(Cl)c3)cc2C#N)CC1 [Example 5-10, tert-butyl 4-(5-{3-chloro-4-[(3-hydroxypropyl)carbamoyl]phenyl}-3-cyanopyridin-2-yl)piperazine-1-carboxylate] |
| 70% | 301 nM | 40% | 8.6 µM | – | CN(CC(O)CO)C(=O)c1ccc(-c2cnc(N3CCN(C(=O)OC(C)(C)C)CC3)c(C#N)c2)cc1Cl (centres unmarked) [Example 5-18, tert-butyl 4-(5-{3-chloro-4-[(2,3-dihydroxypropyl) (methyl)carbamoyl]phenyl}-3-cyanopyridin-2-yl)piperazine-1-carboxylate] |
| 98% | 329 nM | 34% | 11.3 µM | – | CNC(=O)c1ccc(-c2cnc(N3CCN(C(=O)C(C)(C)C)CC3)c(C#N)c2)cc1Cl [Example 6-2, 2-chloro-4-{5-cyano-6-[4-(2,2-dimethylpropanoyl)piperazin-1-yl]pyridin-3-yl}-N-methylbenzamide] |
| 47% | 415 nM | 17% | – | No IP | CC(C)(C)OC(=O)N1CCN(c2ncc(-c3ccc(C(=O)N4CCC(O)CC4)c(Cl)c3)cc2C#N)CC1 [Example 5-17, tert-butyl 4-(5-{3-chloro-4-[(4-hydroxypiperidin-1-yl)carbonyl]phenyl}-3-cyanopyridin-2-yl)piperazine-1-carboxylate] |
| 62% | 262 nM | 44% | 6.9 µM | – | CC(C)(C)OC(=O)N1CCN(c2ncc(-c3ccc(C(=O)N4CC[C@H](O)C4)c(Cl)c3)cc2C#N)CC1 [Example 5-13, tert-butyl 4-[5-(3-chloro-4-{[(3S)-3-hydroxypyrrolidin-1-yl]carbonyl}phenyl)-3-cyanopyridin-2-yl]piperazine-1-carboxylate] |
| 56% | 741 nM | 36% | 7.89 µM | – | CC(O)CN(CC(C)O)C(=O)c1ccc(-c2cnc(N3CCN(C(=O)OC(C)(C)C)CC3)c(C#N)c2)cc1Cl (centres unmarked) [Example 5-25, tert-butyl 4-(5-{4-[bis(2-hydroxypropyl)carbamoyl]-3-chlorophenyl}-3-cyanopyridin-2-yl)piperazine-1-carboxylate] |
| 78% | 57 nM | 68% | 12.7 µM | – | CC1CN(c2ncc(-c3ccc(C(=O)N(C)C)c(Cl)c3)cc2C#N)CCN1C(=O)OC(C)(C)C (centres unmarked) [Example 8-6, tert-butyl 4-{5-[3-chloro-4-(dimethylcarbamoyl)phenyl]-3-cyanopyridin-2-yl}-2-methylpiperazine-1-carboxylate] |
